Holding throughout (experiment): DTP human tumour cell line panel, 48 h
In assay [1] the test system is MDA-MB-231 breast.
Assay [2] relates to HT29 colon.
For assay [3], the system named is T-47D breast.
In assay [4] the test system is SNB-75 CNS.
The test system of assay [5] is SR leukemia.
Assay [6] relates to RXF 393 renal.
Assay [7] relates to 786-0 renal.
The test system of assay [8] is A549 NSCLC.
In assay [9] the test system is MOLT-4 leukemia.
Assay [10] relates to DU-145 prostate.

SMILES strings stand for the structures.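 Compound exposure: 48 hours, 5 concentrations, 96-well plates. Abbreviation: GI50, concentration required for 50% inhibition of growth. At the TGI there is no net growth.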

The GI50 is the concentration giving 50% growth inhibition. For orientation: TGI means the concentration at which net growth stops. Low values mean greater sensitivity of the cells, high ones lower sensitivity of the cells. In the case of `COc1ccc(-c2c(NC(=O)Nc3ccc(Cl)c(C(F)(F)F)c3)cnn2-c2ccc(S(N)(=O)=O)cc2)cc1`, the GI50 in assay [1] was 2.04 µM; in assay [2], 3.59 µM; in [3], 2.69 µM; in [4], 2.3 µM; in [5], 1.99 µM; in assay [6] it was 2.6 µM. In addition, the GI50 in assay [7] is 1.68 µM; in assay [8], 3.46 µM; in assay [9] it was 2.01 µM; in [10], 3.46 µM. The TGI worked out at 4.72 µM in assay [1]; 10.9 µM in assay [2]; 12.4 µM in assay [3]; 13.3 µM in assay [4]; 5.83 µM in assay [5]; 9.83 µM in assay [6]. In addition, the TGI in assay [7] worked out at 3.42 µM; in assay [8] it was 13.6 µM; in assay [9], 5.97 µM; in assay [10], 12.1 µM.

(Values after PubChem BioAssay (NCI).)
